Data set [1] is described as follows: Arterial pressure effects in anesthetized rabbits. The note with it: rabbit. The data set is classed as in vivo. Here is the method: Animal and Homodynamic Measurements:
The experiments were performed with male rabbits weighing 3 kg, from the CECAL (Centro de Criação de Animais de Laboratório) at Fundação Oswaldo Cruz. The animals were anesthetized with sodium pentobarbital (40 mg/kg) in the ear marginal vein, and anesthesia maintenance was obtained with supplemental intravenous (i.v.) doses of 5 mg/kg as necessary. The […] were tracheomized, inserted with a polyethylene canule, and immobilized with pancuronium bromide (1 mg/kg, i.v.), with supplemental doses of 0.2 mg/kg for each hour of experiment and artificially ventilated with a mechanical fan (Rodent ventilator 7025, Ugo Basile) with a volume of 10 ml/kg and frequency from 40 to 50 incursions/min. The right femoral vein was catheterized for drug administration.
The arterial pressure was monitored through abdominal aorta catheter via the right femoral artery and connected to a quartz transductor Hewlett Packard (1290 A), which was connected to an arterial pressure processor and recorder Hewlett Packard (system 7754 with amplifier 8805 B).
The systolic (SAP) and diastolic (DAP) arterial pressures were obtained directly from the records and the average arterial pressure (AAP) was calculated by DAP's Sum with a third of the differential pressure [[…]]. The cardiac frequency was determined by counting the pressure waves, visualized with the speed increase of the recorder paper.
The cardiac debit (DC) was monitored using an electromagnetic probe, connected to a Skalar flowmeter model MDL 1401. After left thoraxatomy, between the second and third ribs, was made an incision in the pericardium and the heart was exposed to enable the visualization and dissection of the ascending aorta for installation of the electromagnetic probe. The systemic vascular resistance (SVR) was calculated as a quotient of the average arterial pressure by the cardiac debit, multiplied by a conversion factor 80 (SVR=AAP/DC×80) and expressed in dyn/seg/cm-5.
At the conclusion of the anesthetic-surgical procedures, a 15-minute period was allowed for stabilization of the homodynamic parameters. Before any pharmacological manipulation the average arterial pressure, cardiac frequency and cardiac debit measurements were obtained. These values were considered basal homodynamic values.
The results were expressed as average±standard deviation (E.P.M.) The administration effects of LASSBio 772 with regard to the basal values were analyzed through variance analysis (ANOVA) for repeated measurements. When a significant statistical difference was found in the test ANOVA, the test Newman-Keuls was used to locate the differences. The paired t test was used to analyze the phenylephrine pressure effects before and after the treatment with LASSBio 772B. Differences with p<0.05 were considered significant. All the calculations were done on the computer, using the statistic software Instat-2.0.
Arterial Pressure Effects of LASSBio 772 Administration: […]

The next data set deals with T1, alpha 1B subtype (Rattus norvegicus, UniProt P15823).
T1 construct: from tissue; host or cells: rat liver homogenate/membranes
T1 sequence (P15823 1-515): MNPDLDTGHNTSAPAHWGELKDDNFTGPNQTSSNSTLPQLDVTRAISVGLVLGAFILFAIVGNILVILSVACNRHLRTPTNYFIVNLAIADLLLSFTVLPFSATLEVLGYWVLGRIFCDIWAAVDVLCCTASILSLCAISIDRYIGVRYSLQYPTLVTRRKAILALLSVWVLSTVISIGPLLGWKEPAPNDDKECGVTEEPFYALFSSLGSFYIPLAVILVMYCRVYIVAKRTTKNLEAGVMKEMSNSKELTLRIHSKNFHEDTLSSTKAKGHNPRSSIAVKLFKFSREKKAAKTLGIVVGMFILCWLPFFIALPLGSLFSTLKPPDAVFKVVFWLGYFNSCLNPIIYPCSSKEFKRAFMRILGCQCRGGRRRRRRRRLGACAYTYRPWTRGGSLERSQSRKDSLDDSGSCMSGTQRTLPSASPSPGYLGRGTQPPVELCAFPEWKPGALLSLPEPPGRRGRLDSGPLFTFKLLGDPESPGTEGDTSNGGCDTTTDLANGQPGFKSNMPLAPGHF
As to the kind of experiment: [3H]prazosin binding assay in rat liver.

Structures are written as SMILES. pIC50: −log10 of the molar value.

`COc1ccccc1N1CCN(CCc2ccc3c(c2)OCO3)CC1` [LASSBio 772, 1-(2-1,3-Benzodioxol-5-yl-ethyl)-4-(2-methoxy-phenyl)-piperazine]: the “reduction of arterial pressure” value in data set [1] (100 μg/kg i.v.) was ~10%. For the same compound, in data set [1] (100 μg/kg i.v., n=5), the “average arterial pressure (AAP)” value is listed as 79±4 mmHg, the “diastolic arterial pressure (DAP)” value amounted to 71±4 mmHg and the “systolic arterial pressure (SAP)” value is given as 94±7 mmHg. In data set [1] (i.v.), the hypotension result is given as “without however causing significant clinically hypotension”. Besides, the “dose from which a significant hypo-tensor response was induced” value in data set [1] (i.v., doses 1-100 μg/kg, versus basal values) was ≥ 3 µg/kg. The pIC50 (usually the negative decadic logarithm of the IC50, by convention in mol/L) at alpha 1B subtype is 6.35.
